This note sets out measurements from ChEMBL document CHEMBL1134180, “Synthesis and biological evaluation of DNA targeting flexible side-chain substituted beta-carboline derivatives” (Bioorg Med Chem Lett, 2001).

The subject of assay [1] is HL-60. Put plainly: Inhibitory concentration against Human leukemia cancer cell (HL-60)lines was determined. The format is functional, cell-based.
For assay [2], the system named is KB. Nature of the assay: Inhibitory concentration against KB cancer cell lines was determined. The class given is functional, cell-based. To be noted: Homo sapiens.
The subject of assay [3] is BGC-823. Put plainly: Inhibitory concentration against Human Gastric cancer cell (BGC)lines was determined. The class given is functional, cell-based. The settings on record: BGC-823, Stomach.
Assay [4] concerns HeLa. Put plainly: Inhibitory concentration against Hella cancer cell lines was determined. The class given is functional, cell-based. To be noted: Homo sapiens.
For assay [5], the species on record is Homo sapiens. Nature of the assay: Inhibitory concentration against Human Gastric cancer cell (BGC) lines was determined. The class given is functional. To be noted: Stomach.

The compound `NCCCCCCNC(=O)c1cc2c3ccccc3nc-2c[nH]1` came in with a 50% inhibitory concentration (IC50) in assay [1] of 510 µM.
`CCN(CC)CCNC(=O)c1cc2c3ccccc3nc-2c[nH]1`: the IC50 in assay [2] stood at 250 µM; in assay [3], 98 µM; in assay [1], 130 µM.
Turning to `NCCNC(=O)c1cc2c3ccccc3nc-2c[nH]1`, the half-maximal inhibitory concentration (IC50) in assay [2] turned out to be 140 µM; in assay [1] it was 81 µM.
On to `CN(C)CCCCNC(=O)c1cc2c3ccccc3nc-2c[nH]1`, for which the IC50 in assay [4] was 140 µM.
On to `NCCCCNC(=O)c1cc2c(cn1)[nH]c1ccccc12`, for which the half-maximal inhibitory concentration (IC50) in assay [2] was 4.1 µM; in assay [3], 8.6 µM; in assay [1] it was 1.9 µM.
For the compound `O=c1[nH]cc(F)c(=O)[nH]1` [FLUOROURACIL], the IC50 in assay [2] came out at 3.5 µM; in assay [5], 68 µM; in assay [4], 1.6 µM; in assay [1], 1 µM.
